These are literature values, as cited in patent publication US20030003095A1, “Activated carbon for preventing pregnancy and sexually transmitted disease” (The Procter & Gamble Company, priority 2002, published 2003).

For the data set the following is noted: stated in words, no test described.

On to `N=C(NCCCCCCNC(=N)NC(=N)Nc1ccc(Cl)cc1)NC(=N)Nc1ccc(Cl)cc1.O=C(O)[C@H](O)[C@@H](O)[C@H](O)[C@H](O)CO.O=C(O)[C@H](O)[C@@H](O)[C@H](O)[C@H](O)CO` [chlorhexidene digluconate], for which the water solubility result is “water-soluble”.
Take `Oc1cc(Cl)ccc1Oc1ccc(Cl)cc1Cl` [triclosan]: the water solubility result was “water insoluble”.
As for nonoxynol-9, the water solubility result is on record as “slightly water soluble”.
